Patent US9743665B2, “Fungicidal 3-{phenyl[heterocyclylmethoxy)imino]methyl}-oxadiazolone derivatives” (BAYER CROPSCIENCE AKTIENGESELLSCHAFT, priority 2013, dated 2017)
Marks after values point to notes of the source that are not given here.

Tests used:
Phytophthora infestans [1] = format: in vivo; conditions: tomato plants, preventive spray, 500 ppm of active ingredient, evaluated 5 days after inoculation
Puccinia recondita = test: Example D: in vivo preventive test on Puccinia recondita (brown rust on wheat); conditions: wheat plants, preventive spray, 500 ppm of active ingredient, evaluated 11 days after inoculation
Description: Example D: In Vivo Preventive Test on Puccinia recondita (Brown Rust on Wheat)
(§1) The tested active ingredients are prepared by homogenization in a mixture of acetone/Dimethyl sulfoxide/Tween®, and then diluted with water to obtain the desired active material concentration.
(§2) The young plants of wheat are treated by spraying the active ingredient prepared as described above. Control plants are treated only with an aqueous solution of acetone/Dimethyl sulfoxide/Tween®.
After 24 hours, the plants are contaminated by spraying the leaves with an aqueous suspension of Puccinia recondita spores. The contaminated wheat plants are incubated for 24 hours at 20° C. and at 100% relative humidity and then for 10 days at 20° C. and at 70-80% relative humidity.
(§3) The test is evaluated 11 days after the inoculation. 0% means an efficacy which corresponds to that of the control plants while an efficacy of 100% means that no disease is observed.

Uromyces appendiculatus = test: Example H: in vivo preventive test on Uromyces appendiculatus (bean rust); conditions: bean plants, preventive spray, 500 ppm of active ingredient, evaluated 11 days after inoculation
Description: Example H: In Vivo Preventive Test on Uromyces appendiculatus (Bean Rust)
as §1
The young plants of bean are treated by spraying the active ingredient prepared as described above. Control plants are treated only with an aqueous solution of acetone/Dimethyl sulfoxide/Tween®.
After 24 hours, the plants are contaminated by spraying the leaves with an aqueous suspension of Uromyces appendiculatus spores. The contaminated bean plants are incubated for 24 hours at 20° C. and at 100% relative humidity and then for 10 days at 20° C. and at 70-80% relative humidity.
as §3

[2] = pH 2.7
Description: (§4) Measurement of IogP values was performed according EEC directive 79/831 Annex V.A8 by HPLC (High Performance Liquid Chromatography) on reversed phase columns with the following methods:
(§5) Measurement of LC-MS was done at pH 2.7 with 0.1% formic acid in water and with acetonitrile (contains 0.1% formic acid) as eluent with a linear gradient from 10% acetonitrile to 95% acetonitrile.
(§6) Calibration was done with not branched alkan2-ones (with 3 to 16 carbon atoms) with known logP-values (measurement of logP values using retention times with linear interpolation between successive alkanones). lambda-maX-values were determined using UV-spectra from 200 nm to 400 nm and the peak values of the chromatographic signals.

Pyrenophora teres = test: Example E: in vivo preventive test on Pyrenophora teres (net blotch on barley); conditions: barley plants, preventive spray, 500 ppm of active ingredient, evaluated 14 days after inoculation
Description: Example E: In Vivo Preventive Test on Pyrenophora teres (Net Blotch on Barley)
as §1
The young plants of barley are treated by spraying the active ingredient prepared as described above. Control plants are treated only with an aqueous solution of acetone/Dimethyl sulfoxide/Tween®.
After 24 hours, the plants are contaminated by spraying the leaves with an aqueous suspension of Pyrenophora teres spores. The contaminated barley plants are incubated for 48 hours at 20° C. and at 100% relative humidity and then for 12 days at 20° C. and at 70-80% relative humidity.
The test is evaluated 14 days after the inoculation. 0% means an efficacy which corresponds to that of the control plants while an efficacy of 100% means that no disease is observed.

Plasmopara viticola = test: Example J: Plasmopara test (grapevines)/preventive; format: in vivo; conditions: grapevine plants, preventive spray, 10 ppm of active ingredient, evaluated 6 days after inoculation
Description: Example J: Plasmopara Test (Grapevines)/Preventive
To produce a suitable preparation of active compound, 1 part by weight of active compound is mixed with the stated amounts of solvent and emulsifier, and the concentrate is diluted with water to the desired concentration.
To test for preventive activity, young plants are sprayed with the preparation of active compound at the stated rate of application. After the spray coating has dried on, the plants are inoculated with an aqueous spore suspension of Plasmopara viticola and then remain for 1 day in an incubation cabinet at approximately 20° C. and a relative atmospheric humidity of 100%. The plant is subsequently placed for 4 days in a greenhouse at approximately 21° C. and a relative atmospheric humidity of approximately 90%. The plants are then misted and placed for 1 day in an incubation cabinet.
The test is evaluated 6 days after the inoculation. 0% means an efficacy which corresponds to that of the untreated control, while an efficacy of 100% means that no disease is observed.

Septoria tritici = test: Example G: in vivo preventive test on Septoria tritici (leaf spot on wheat); conditions: wheat plants, preventive spray, 500 ppm of active ingredient, evaluated 24 days after inoculation
Description: Example G: In Vivo Preventive Test on Septoria tritici (Leaf Spot on Wheat)
as §1, §2
After 24 hours, the plants are contaminated by spraying the leaves with an aqueous suspension of Septoria tritici spores. The contaminated wheat plants are incubated for 72 hours at 18° C. and at 100% relative humidity and then for 21 days at 20° C. and at 90% relative humidity.
The test is evaluated 24 days after the inoculation. 0% means an efficacy which corresponds to that of the control plants while an efficacy of 100% means that no disease is observed.

Pyricularia oryzae = format: in vivo; conditions: rice plants, preventive spray, 500 ppm of active ingredient, evaluated 6 days after inoculation
Alternaria brassicae = test: Example A: in vivo preventive test on Alternaria brassicae (leaf spot on radish); conditions: radish plants, preventive spray, 500 ppm of active ingredient, evaluated 6 days after inoculation
Description: Example A: In Vivo Preventive Test on Alternaria brassicae (Leaf Spot on Radish)
as §1
The young plants of radish are treated by spraying the active ingredient prepared as described above. Control plants are treated only with an aqueous solution of acetone/Dimethyl sulfoxide/Tween®.
After 24 hours, the plants are contaminated by spraying the leaves with an aqueous suspension of Alternaria brassicae spores. The contaminated radish plants are incubated for 6 days at 20° C. and at 100% relative humidity.
The test is evaluated 6 days after the inoculation. 0% means an efficacy which corresponds to that of the control plants while an efficacy of 100% means that no disease is observed.

Botrytis cinerea = test: Example B: in vivo preventive test on Botrytis cinerea (grey mould); conditions: gherkin plants, preventive spray, 500 ppm of active ingredient, evaluated 4 to 5 days after inoculation
Description: Example B: In Vivo Preventive Test on Botrytis cinerea (Grey Mould)
as §1
The young plants of gherkin are treated by spraying the active ingredient prepared as described above. Control plants are treated only with an aqueous solution of acetone/Dimethyl sulfoxide/Tween®.
After 24 hours, the plants are contaminated by spraying the leaves with an aqueous suspension of Botrytis cinerea spores. The contaminated gherkin plants are incubated for 4 to 5 days at 17° C. and at 90% relative humidity.
The test is evaluated 4 to 5 days after the inoculation. 0% means an efficacy which corresponds to that of the control plants while an efficacy of 100% means that no disease is observed.

Phytophthora infestans [3] = format: in vivo; conditions: tomato plants, preventive spray (DMF/alkylaryl polyglycol ether), 500 ppm of active ingredient, evaluated 7 days after inoculation
[4] = pH 2.7; remark: listed apart in the source
Description: as §4, §5, §6

| SMILES | % efficacy (Phytophthora infestans [1]) [%] | LogP [2] | % efficacy (Septoria tritici) [%] | other results |
| --- | --- | --- | --- | --- |
| Cn1c(/C(=N\OCc2nc(C#CCCCc3ccccc3)cs2)c2ccccc2)noc1=O [Example 20] | 90 | 4.68^[a] |  | % efficacy (Puccinia recondita): 78%; % efficacy (Uromyces appendiculatus): 81% |
| Cn1c(/C(=N\OCc2nc(NC(=O)OC(C)(C)C)cs2)c2ccccc2)noc1=O [Example 6] | 100 | 3.64^[a] |  | % efficacy (Pyrenophora teres): 80%; Eff. % (Plasmopara viticola): 99% |
| Cn1c(/C(=N\OCc2nc(C(=O)Nc3ccccc3)cs2)c2ccccc2)noc1=O [Example 16] | 80 | 3.29^[a] | 79 | % efficacy (Pyrenophora teres): 71% |
| Cn1c(/C(=N\OCc2nc(/C=C/C3CC3)cs2)c2ccccc2)noc1=O [Example 34] | 100 | 3.90^[a] | 86 |  |
| CCCCCCNC(=O)c1csc(CO/N=C(/c2ccccc2)c2noc(=O)n2C)n1 [Example 18] | 99 | 3.76^[a] |  | % efficacy (Pyrenophora teres): 71%; % efficacy (Uromyces appendiculatus): 72% |
| Cn1c(/C(=N\OCc2nc(C#Cc3ccc(F)cc3)cs2)c2ccccc2)noc1=O [Example 13] | 95 | 4.09^[a] |  | % efficacy (Pyricularia oryzae): 79% |
| Cn1c(/C(=N\OCc2nc(C#CC3CC3)cs2)c2ccccc2)noc1=O [Example 10] | 100 | 3.56^[a] |  | % efficacy (Alternaria brassicae): 97% |
| Cn1c(/C(=N\OCc2nc(C(=O)NCCc3ccccc3)cs2)c2ccccc2)noc1=O [Example 15] | 100 | 3.27^[a] |  | % efficacy (Botrytis cinerea): 73%; Eff. % (Plasmopara viticola): 75% |
| Cn1c(/C(=N\OCc2nc(C(=O)NC(C)(C)C)cs2)c2ccccc2)noc1=O [Example 5] | 100 | 3.22^[a] | 86 |  |
| Cn1c(/C(=N\OCc2nc(/C=C/C3CCCCC3)cs2)c2ccccc2)noc1=O [Example 29] | 83 | 5.39^[a] | 79 |  |
| CCCCCOC(=O)Nc1ccn(CO/N=C(/c2ccccc2)c2nc(=O)on2C)n1 [Example 7, pentyl {1-[({[(Z)-(2-methyl-5-oxo-2,5-dihydro-1,2,4-oxadiazol-3-yl)(phenyl)methylene]amino}oxy)methyl]-1H-pyrazol-3-yl}carbamate] |  |  |  | Eff. % (Phytophthora infestans [3]): 100%; Eff. % (Plasmopara viticola): 85%; chromatographic logP [4]: 3.06 |
